Where a SMILES comes first, the peptide text is derived from it. Bridges are numbered along the chain shown (N, C = ends). [ ]: non-standard residue; d: D form. 2Nal = N[C@@H](Cc1ccc2ccccc2c1)C(=O)O; Cit = NC(=O)NCCC[C@H](N)C(=O)O

This is an account of results in patent US7838496B2, “Template-fixed peptidomimetics as medicaments against HIV and cancer” (Polyphor AG/Ltd., priority 2003, dated 2010).

Holding throughout (type): cell-based
The test system of data set [1] is human red blood cells (hRBC). The conditions noted are these: red cells of human, 1 h. As to the method:
The peptides were tested for their hemolytic activity against human red blood cells (hRBC). Fresh hRBC were washed three times with phosphate buffered saline (PBS) by centrifugation for 10 min at 2000×g. Peptides at a concentration of 100 μM were incubated with 20% v/v hRBC for 1 hour at 37-C. The final erythrocyte concentration was approximately 0.9×10^9 cells per mL. A value of 0% resp. 100% cell lysis was determined by incubation of the hRBC in the presence of PBS alone and respectively 0.1% Triton X-100 in H2O. The samples were centrifuged and the supernatant was 20-fold diluted in PBS buffer and the optical density (OD) of the sample at […] was measured. The 100% lyses value (OD540H2O) gave an OD540 of approximately 1.3-1.8. Percent hemolysis was calculated as follows: (OD540peptide/OD540H2O)×100%.

The nature of another data set: in vitro. As to the method: The cytotoxicity of the peptides to HELA cells (Acc57) and COS-7 cells (CRL-1651) was determined using the MTl reduction assay [see ref. 6 and 7, below]. Briefly the method was as follows: HELA cells and COS-7 cells were seeded at 7.0·10^3 and, respectively, 4.5·10^3 cells per well and grown in 96-well microtiter plates for 24 hours at 37° C. at 5% CO2. At this point, time zero (Tz) was determined by MTT reduction (see below). The supernatant of the remaining wells was discarded and fresh medium and the peptides in serial dilutions of 12.5, 25 and 50 μM were pipeted into the wells. Each peptide concentration was assayed in triplicate. Incubation of the cells was continued for 48 hours at 37° C. at 5% CO2. Wells were then washed once with PBS and subsequently 100 μl MTT reagent (0.5 mg/mL in medium RPMI1640 and, respectively, DMEM) was added to the wells. This was incubated at 37° C. for 2 hours and subsequently the medium was aspirated and 100 μl isopropanol was added to each well. The absorbance at 595 nm of the solubilized product was measured (OD595peptide). For each concentration averages were calculated from triplicates. The percentage of growth was calculated as follows: (OD595peptide-OD595Tz-OD595Empty well)/(OD595Tz-OD595Empty well)×100% and was plotted for each peptide concentration.
The LC 50 values (Lethal Concentration, defined as the concentration that kills 50% of the cells) were determined for each peptide by using the trend line function of EXCEL (Microsoft Office 2000) for the concentrations (50, 25, 12.5 and 0 μM), the corresponding growth percentages and the value −50, (=TREND(C50:C0,%50:%0,−50))
(§1) All fine chemicals came from Merck (D)armstadt, Germany).

In another data set the target is T1, CXCR4 (Homo sapiens, UniProt P61073).
T1 construct: expressed in transfected cells
T1 sequence (P61073 whole entry): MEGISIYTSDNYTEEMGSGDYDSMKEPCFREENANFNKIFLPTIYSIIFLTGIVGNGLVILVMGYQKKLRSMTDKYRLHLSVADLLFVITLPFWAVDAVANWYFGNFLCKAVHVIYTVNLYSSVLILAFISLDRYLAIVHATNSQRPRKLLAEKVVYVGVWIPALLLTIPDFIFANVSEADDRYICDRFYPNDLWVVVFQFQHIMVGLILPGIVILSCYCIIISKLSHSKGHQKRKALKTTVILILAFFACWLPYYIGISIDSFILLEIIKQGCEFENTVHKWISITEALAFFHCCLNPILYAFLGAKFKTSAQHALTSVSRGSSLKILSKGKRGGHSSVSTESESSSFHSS
In words: Ca2+ assay: CXCR4 antagonizing activity of the peptides. Particulars: CXCR4 transfected pre-B cells, Fura-2 fluorescence, 37° C. The procedure: 2.2. Ca^2+− assay: CXCR4Antagonizing Activity of the Peptides
3-4 Mio CXCR4 transfected pre-B cells [see references 1, 2 and 3, below] per measurement were resuspended in 200 μl MSB (20 mM 4-(2-Hyddroxyethyl)-piperazin-1-ethansulfonic acid (HEPES), 136 mM NaCl, 4.8 mM KCl and 1 mM CaCl2) containing 5 mM D-Glucose and were loaded with 0.75 μl of 1 mM Fura-2-acetoxymethylester for 17 minutes at 37° C. The cells were washed free from Fura-2-AM with a platelet centrifuge and resuspended in 800 R1 MSB containing 5 mM D-Glucose. The peptides to be administered were diluted to a 100 fold end concentration in MSB/0.2% PPL, and 8 pl were injected. [Ca^2+ ]i-dependent fluorescence change in response to single or sequential stimulation with the peptide was recorded with a fluorimeter at an excitation wavelength of 340 nm and an end emission wavelength of 510 nm [see ref. 4, below]. Measurements were done under continuous stirring at 37° C. The signal intension was calibrated with 3 mM4 CaCl2/1 nM lonomycin (maximal fura-2-acetoxymethylester saturation) and […] MnCl2 (minimal Fura-2-acetoxymethylester saturation) and [Ca^2+]i-changes are presented in % fura-2-acetoxymethylester saturation.
MSB: 20 nmM HEPES, 136 mM NaCl, 4.8 mM KCl, 1 mM CaCl2.2H2O, pH 7.4; Osmolarity: 310 mOsm adjusted with NaOH or HCl, adjusted with dH2O or PBS.
MSB plus: 5 mM D-glucose in MSB (50 mg/50 mL).
Fura 2-acetoxymethylester: 1 mM stock solution in dimethylsulfoxide.

Data set [2] relates to 'CCR5' cells / Hut/4-3 cells co-cultivation. Description: FIGS-Assay (co-cultivated cell cultures, beta-galactosidase/ONPG read-out). The conditions noted are these: 48 hours of co-cultivation. As to the method: The assay was performed according to ref. 5, below. Stock dilutions of the peptides (10 mM) were prepared by dissolving in 10 mM Tris-HCl at room temperature. Stock solutions were kept at +4° C., light protected. Working dilutions were prepared extemporaneously by serial dilution in Phosphate Buffered Saline (PBS) and added in a final volume of 10 μL directly to the cell cultures. After 48 hours of co-cultivation the cultures were rinsed with PBS and then exposed to glutaraldehyde/formaldehyde (0.2%/2%) in PBS for five minutes. For photometric quantification the fixed cultures were subsequently incubated with ortho-nitro-phenyl-galactopyranoside (ONPG) as a O-galactosidase substrate, which was enzymatically converted into the chromophore ortho-nitrophenol (ONP). The read out is directly obtained by measuring optical density of wells at 405 nm in an IEMS 96 well-plate reader.
as §1

By CC50 is commonly meant the concentration that lowers cell viability or growth by half. A high value points to better tolerance by the cells. Turning to `N=C(N)NCCC[C@H](NC(=O)[C@@H]1CSSC[C@H](NC(=O)[C@H](Cc2ccc3ccccc3c2)NC(=O)[C@H](CCCNC(=N)N)NC(=O)[C@@H](N)CCCNC(=N)N)C(=O)N[C@@H](Cc2ccc(O)cc2)C(=O)N[C@@H](CCCCN)C(=O)N[C@H](CCCCN)C(=O)N2CCC[C@H]2C(=O)N[C@@H](Cc2ccc(O)cc2)C(=O)N[C@@H](CCCNC(N)=O)C(=O)N1)C(N)=O` [Example 1] (H-RR[2Nal]CYK[dK]PY[Cit]CR-NH2; disulfide 4-11; N-terminus assumed), the “Hemolysis at 100 μM” value in data set [1] turned out to be 0.4%. Also, in “in vitro”, the CC50 amounted to 75 µM.

A word on the IC50: it is the concentration that gives 50% inhibition. High values mean a need for much substance, low ones inhibition by little substance. As to `N=C(N)NCCC[C@H](NC(=O)[C@@H]1CSSC[C@H](NC(=O)[C@H](Cc2ccc3ccccc3c2)NC(=O)[C@H](CCCNC(=N)N)NC(=O)[C@@H](N)CCCNC(=N)N)C(=O)N[C@@H](Cc2ccc(O)cc2)C(=O)N[C@@H](CCCNC(N)=O)C(=O)N[C@@H](CCCCN)C(=O)N2CCC[C@H]2C(=O)N2CCC[C@H]2C(=O)N[C@@H](Cc2ccc(O)cc2)C(=O)N[C@@H](CCCNC(=N)N)C(=O)N[C@@H](CCCNC(N)=O)C(=O)N1)C(N)=O` [Example 24] (H-RR[2Nal]CY[Cit]KPPYR[Cit]CR-NH2; disulfide 4-13), the “Hemolysis at 100 μM” value in data set [1] came out at 1.1%. The molecule further registered a CC50 at 48 h in the data set “in vitro” of 67 µM. At CXCR4, this molecule registered a concentration for half-maximal inhibition (IC50) of 100 nM. In data set [2], the “FIGS % inhibition at 200 nM” value is 17.1%.

In the case of `N=C(N)NCCC[C@H](NC(=O)[C@@H]1CSSC[C@H](NC(=O)[C@H](Cc2ccc3ccccc3c2)NC(=O)[C@H](CCCNC(=N)N)NC(=O)[C@@H](N)CCCNC(=N)N)C(=O)N[C@@H](Cc2ccc(O)cc2)C(=O)N[C@@H](CCCNC(N)=O)C(=O)N[C@@H](CCCCN)C(=O)N2CCC[C@@H]2C(=O)N2CCC[C@H]2C(=O)N[C@@H](Cc2ccc(O)cc2)C(=O)N[C@@H](CCCNC(=N)N)C(=O)N[C@@H](CCCNC(N)=O)C(=O)N1)C(=O)O` [Example 20] (H-RR[2Nal]CY[Cit]K[dP]PYR[Cit]CR-OH; disulfide 4-13), the “Hemolysis at 100 μM” value in data set [1] was 0.2%. This molecule gave a half-maximal cytotoxic concentration (CC50) at 48 h in “in vitro” of 138 µM. Further, half-maximal inhibition against CXCR4 (IC50) was put at 15.5 nM. In addition, the “FIGS % inhibition, At 300 nM” value in data set [2] (At 300 nM) was “At 300 nM: 100%”.

`N=C(N)NCCC[C@H](NC(=O)[C@@H]1CSSC[C@H](NC(=O)[C@H](Cc2ccc3ccccc3c2)NC(=O)[C@H](CCCNC(=N)N)NC(=O)[C@@H](N)CCCNC(=N)N)C(=O)N[C@@H](Cc2ccc(O)cc2)C(=O)N[C@@H](CCCNC(N)=O)C(=O)N[C@@H](CCCCN)C(=O)N[C@H]2C[C@H]3C(=O)N[C@@H](CC(=O)N[C@@H](Cc4ccc(O)cc4)C(=O)N[C@@H](CCCNC(=N)N)C(=O)N[C@@H](CCCNC(N)=O)C(=O)N1)C(=O)N3C2)C(N)=O` [Example 21]: the “Hemolysis at 100 μM” value in data set [1] is given as 0.8%. The half-maximal cytotoxic concentration (CC50) at 48 h in “in vitro” worked out at 82 µM. The “FIGS % inhibition at 200 nM” value in data set [2] is 29.6%.

For `N=C(N)NCCC[C@H](NC(=O)[C@@H]1CSSC[C@H](NC(=O)[C@H](Cc2ccc3ccccc3c2)NC(=O)[C@H](CCCNC(=N)N)NC(=O)[C@@H](N)CCCNC(=N)N)C(=O)N[C@@H](Cc2ccc(O)cc2)C(=O)N[C@@H](CCCCN)C(=O)N[C@H](CCCCN)C(=O)N2CCC[C@H]2C(=O)N[C@@H](CCCNC(=N)N)C(=O)N[C@@H](CCCNC(N)=O)C(=O)N1)C(N)=O` [Example 3] (H-RR[2Nal]CYK[dK]PR[Cit]CR-NH2; disulfide 4-11; N-terminus assumed), the “Hemolysis at 100 μM” value in data set [1] is on record as 0.7%. The molecule also gave a cytotoxic concentration (CC50) at 48 h in the data set “in vitro” of 52 µM. Also, on CXCR4, the midpoint of inhibition, the IC50, lay at 490 nM. Also, the “FIGS % inhibition at 200 nM” value in data set [2] is recorded as 5.7%.

In the case of `N=C(N)NCCC[C@H](NC(=O)[C@@H]1CSSC[C@H](NC(=O)[C@H](Cc2ccc3ccccc3c2)NC(=O)[C@H](CCCNC(=N)N)NC(=O)[C@@H](N)CCCNC(=N)N)C(=O)N[C@@H](Cc2ccc(O)cc2)C(=O)N[C@@H](CCCNC(=N)N)C(=O)N[C@H](CCCCN)C(=O)N2CCC[C@H]2C(=O)N[C@@H](Cc2ccc(O)cc2)C(=O)N[C@@H](CCCNC(N)=O)C(=O)N1)C(N)=O` [Example 2] (H-RR[2Nal]CYR[dK]PY[Cit]CR-NH2; disulfide 4-11), the “Hemolysis at 100 μM” value in data set [1] came to 0.9%. The molecule also registered a CC50 at 48 h in “in vitro” of 58 µM. Further, the “FIGS % inhibition at 200 nM” value in data set [2] stood at 3.8%.
